According to PubChem BioAssay (NCI):
“And” between values parts separate entries of the source, which are not always exact repeats. Equal values may be shown once.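 These data come from cells grown in 96-well plates and exposed to compound for 48 hours at five concentrations. GI50 marks 50% less growth. TGI is the concentration that stops growth completely.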

Tests used:
Test in all cases: growth of human tumour cells (NCI), 48 h
MDA-MB-468 breast = system: MDA-MB-468 breast
OVCAR-3 ovarian = system: OVCAR-3 ovarian
HCT-15 colon = system: HCT-15 colon
HCC-2998 colon = system: HCC-2998 colon
TK-10 renal = system: TK-10 renal
SK-MEL-2 melanoma = system: SK-MEL-2 melanoma
EKVX NSCLC = system: EKVX NSCLC
A498 renal = system: A498 renal
ACHN renal = system: ACHN renal
HL-60(TB) leukemia = system: HL-60(TB) leukemia
BT-549 breast = system: BT-549 breast
NCI-H23 lung = system: NCI-H23 lung
RXF 393 renal = system: RXF 393 renal
MOLT-4 leukemia = system: MOLT-4 leukemia
MCF7 breast = system: MCF7 breast
DU-145 prostate = system: DU-145 prostate
RPMI-8226 leukemia = system: RPMI-8226 leukemia
OVCAR-4 ovarian = system: OVCAR-4 ovarian
786-0 renal = system: 786-0 renal
CCRF-CEM leukemia = system: CCRF-CEM leukemia
SNB-19 CNS = system: SNB-19 CNS

For `COc1cccc(C2C(C#N)=C(N)Oc3cc(OCCCCCC[P+](c4ccccc4)(c4ccccc4)c4ccccc4)ccc32)c1` (configuration not stated), the GI50 (MDA-MB-468 breast) was 222 nM and the TGI (MDA-MB-468 breast) was 611 nM.
In the case of `CCOc1ccc2cc(-c3nn(CC4CCN(C)CC4)c4ncnc(N)c34)ccc2c1`, the GI50 (MDA-MB-468 breast) is reported as 14500 nM and the TGI (MDA-MB-468 breast) is reported as 32200 nM.
With `CN(C)CCN=c1nc2c(c(N)n1-c1ccccc1)c(=S)n(-c1ccccc1)c(=S)n2-c1ccccc1` the GI50 (MDA-MB-468 breast) was 1360 nM and the TGI (MDA-MB-468 breast) was 3020 nM.
`COc1ccc2c(c1)[n+](=O)c(/C=C/C(=O)c1cc(OC)c(OC)c(OC)c1)c(C)n2[O-]` gave a GI50 (MDA-MB-468 breast) of 3160 nM and a TGI (MDA-MB-468 breast) of 18000 nM.
`COc1ccc(C2=NNC(c3sc(Cl)nc3Cl)C2)cc1` (configuration not stated) gave a GI50 (MDA-MB-468 breast) of 2600 nM and a TGI (MDA-MB-468 breast) of 8190 nM.
Work on `COc1ccc(CN2c3ccccc3Sc3ccccc32)cc1O` yielded a GI50 (MDA-MB-468 breast) of 531 nM and a TGI (MDA-MB-468 breast) of 12300 nM.
`COc1cc(N)c(Cl)cc1C(=O)N[C@@H]1CCN(CCCOc2ccc(F)cc2)C[C@@H]1OC` was tested, and the GI50 (MDA-MB-468 breast) was 89400 nM and the TGI (MDA-MB-468 breast) was greater than 100000 nM.
Work on `Fc1ccc(-c2ncn(C3CCNCC3)c2-c2ccnc(Oc3ccc(Cl)cc3)n2)cc1` yielded a GI50 (MDA-MB-468 breast) of 1780 nM and a TGI (MDA-MB-468 breast) of 5360 nM.
For `CCS(=O)(=O)c1cccc(-c2cc(C(=O)NC3CCN(C)CC3)c(C)c3[nH]c4ncc(C)cc4c23)c1`, the GI50 (MDA-MB-468 breast) was 192 nM and 86.9 nM and the TGI (MDA-MB-468 breast) was 2690 nM and 470 nM.
In the case of `COc1cc(C2CC(c3ccc(Cl)cc3)=NN2C(C)=O)ccc1Oc1ccnc2cc(Cl)ccc12` (configuration not stated), the GI50 (MDA-MB-468 breast) is reported as 4220 nM and the TGI (MDA-MB-468 breast) is reported as greater than 100000 nM.
Molecule `CCN(CC)c1ccc(/C=N/N=C(N)N)cc1` has a GI50 (MDA-MB-468 breast) of 1880 nM and a TGI (MDA-MB-468 breast) of 6610 nM.
In the case of `COc1ccc(N=c2nc3sc4cc(Cl)ccc4n3c(N)c2C#N)cc1`, the GI50 (MDA-MB-468 breast) is reported as 1110 nM and the TGI (MDA-MB-468 breast) is reported as 19700 nM.
In the case of `O=C(O)C(Cc1ccccc1)N1C(=O)/C(=C/C(Cl)=C/c2ccc([N+](=O)[O-])cc2)SC1=S` (configuration not stated), the GI50 (MDA-MB-468 breast) is reported as 1390 nM and the TGI (MDA-MB-468 breast) is reported as 3280 nM.
In the case of `CSCc1ncc(-c2ccc(C(F)(F)F)cc2)c(NC2CCCCCC2)n1`, the GI50 (MDA-MB-468 breast) is reported as greater than 10000 nM and the TGI (MDA-MB-468 breast) is reported as greater than 10000 nM.
With `CCCCC[C@H]1C/C=C2/C(=O)C=C[C@@H]2C/C=C\CCCC(=O)O1` the GI50 (MDA-MB-468 breast) was 134 nM and the TGI (MDA-MB-468 breast) was 577 nM.
Work on `CC(C)(O)c1cc(Nc2cc(Oc3cn(C4CC4)nc3C3CCOCC3)ccn2)ccn1` yielded a GI50 (MDA-MB-468 breast) of 30600 nM and a TGI (MDA-MB-468 breast) greater than 100000 nM.
With `COc1ccc(C2C3=C(COC3=O)Oc3cc4c(cc32)OCO4)cc1OC` (configuration not stated) the GI50 (MDA-MB-468 breast) was 4700 nM and the TGI (MDA-MB-468 breast) was greater than 100000 nM.
`COC(=O)N[C@@H](C)CNc1nccc(-c2cn(C(C)C)nc2-c2cc(Cl)cc(NS(C)(=O)=O)c2F)n1` was tested, and the GI50 (MDA-MB-468 breast) was 24800 nM and the TGI (MDA-MB-468 breast) was greater than 100000 nM.
`Cc1cc(C)c(-c2c(O)c(Br)c(-c3c(C)cc(C)c(Br)c3C)c(O)c2Br)c(C)c1Br` showed a GI50 (MDA-MB-468 breast) of 2830 nM and a TGI (MDA-MB-468 breast) of 11100 nM.
`CCOC(=O)c1sc(NC(=O)COc2ccc(/C=C3\CCc4cc(OC)ccc4C3=O)cc2)nc1C` showed a GI50 (MDA-MB-468 breast) of 1730 nM and a TGI (MDA-MB-468 breast) of 7200 nM.
Molecule `CCC(=C(c1ccc(OCCN2CCCCCC2)cc1)c1ccc(OCCN2CCCCCC2)cc1)c1ccc(Cl)cc1` has a GI50 (MDA-MB-468 breast) of 656 nM and a TGI (MDA-MB-468 breast) of 1490 nM.
In the case of `CN(Cc1cnc2nc(N)nc(N)c2n1)c1c(Cl)cc(C(=O)NC(CCC(=O)O)C(=O)O)cc1Cl` (configuration not stated), the GI50 (MDA-MB-468 breast) is reported as less than 21.1 nM.
With `COc1ccc(C(=O)c2ccccc2)c(O)c1` the GI50 (MDA-MB-468 breast) was 40000 nM and the TGI (MDA-MB-468 breast) was greater than 100000 nM.
`CN(CCOc1ccc(NS(C)(=O)=O)cc1)CCc1ccc(NS(C)(=O)=O)cc1` showed a GI50 (MDA-MB-468 breast) greater than 100000 nM and a TGI (MDA-MB-468 breast) greater than 100000 nM.
For `O=C(NCc1cn(Cc2cccc(Oc3ccccc3)c2)nn1)c1cccnc1NCc1ccc(Cl)cc1`, the GI50 (MDA-MB-468 breast) was 3440 nM and the TGI (MDA-MB-468 breast) was greater than 100000 nM.
`CC(=O)c1nc(-c2ccc(C[C@@H](CNC(=O)CN(C)C)NC(=O)c3ccc(OC(C)C)c(Cl)c3)cc2)cn1C` showed a GI50 (MDA-MB-468 breast) of 39.9 nM and a TGI (MDA-MB-468 breast) of 14300 nM.
With `C/C(=N\NC(=S)N1CCCC1)c1ccccn1` the GI50 (MDA-MB-468 breast) was less than 10 nM and the TGI (MDA-MB-468 breast) was 80.1 nM.
With `COc1ccc2nc(Nc3cccc(NC(=O)c4ccc(CN5CCCN(C)CC5)c(C(F)(F)F)c4)c3)ccc2c1` the GI50 (OVCAR-3 ovarian) was 177 nM, the TGI (OVCAR-3 ovarian) was 334 nM and the GI50 (MDA-MB-468 breast) was 125 nM. For the same molecule, the TGI (MDA-MB-468 breast) was 256 nM, the GI50 (HCT-15 colon) was 51.1 nM and the TGI (HCT-15 colon) was 170 nM. For the same molecule, the GI50 (HCC-2998 colon) was 175 nM, the TGI (HCC-2998 colon) was 313 nM and the GI50 (TK-10 renal) was 179 nM. It also gave a TGI (TK-10 renal) of 318 nM, a GI50 (SK-MEL-2 melanoma) of 175 nM and a TGI (SK-MEL-2 melanoma) of 315 nM. For the same molecule, the GI50 (EKVX NSCLC) was 167 nM, the TGI (EKVX NSCLC) was 307 nM and the GI50 (A498 renal) was 177 nM. It also gave a TGI (A498 renal) of 325 nM, a GI50 (ACHN renal) of 171 nM and a TGI (ACHN renal) of 308 nM. For the same molecule, the GI50 (HL-60(TB) leukemia) was 189 nM, the TGI (HL-60(TB) leukemia) was 438 nM and the GI50 (BT-549 breast) was 160 nM. For the same molecule, the TGI (BT-549 breast) was 297 nM, the GI50 (NCI-H23 lung) was 148 nM and the TGI (NCI-H23 lung) was 282 nM. The GI50 (RXF 393 renal) was 134 nM, the TGI (RXF 393 renal) was 267 nM and the GI50 (MOLT-4 leukemia) was 102 nM. The TGI (MOLT-4 leukemia) was 352 nM, the GI50 (MCF7 breast) was 121 nM and the TGI (MCF7 breast) was 261 nM. It also gave a GI50 (DU-145 prostate) of 171 nM, a TGI (DU-145 prostate) of 316 nM and a GI50 (RPMI-8226 leukemia) of 176 nM. For the same molecule, the TGI (RPMI-8226 leukemia) was 456 nM, the GI50 (OVCAR-4 ovarian) was 171 nM and the TGI (OVCAR-4 ovarian) was 340 nM. It also gave a GI50 (786-0 renal) of 169 nM, a TGI (786-0 renal) of 309 nM and a GI50 (CCRF-CEM leukemia) of 173 nM. For the same molecule, the TGI (CCRF-CEM leukemia) was 531 nM, the GI50 (SNB-19 CNS) was 173 nM and the TGI (SNB-19 CNS) was 313 nM.
Molecule `CCOC(=O)/C=C/c1ccc([N+](=O)[O-])o1` has a GI50 (MDA-MB-468 breast) of 3760 nM and a TGI (MDA-MB-468 breast) of 17500 nM.
`COc1ccc(/C=C(\C#N)c2cc(OC)c(OC)c(OC)c2)cc1` was tested, and the GI50 (MDA-MB-468 breast) was 22.2 nM and the TGI (MDA-MB-468 breast) was 2520 nM.
`Cn1cc(-c2csc(-c3ccc(Cl)cc3)n2)c2cccnc21` gave a GI50 (MDA-MB-468 breast) of 10500 nM and a TGI (MDA-MB-468 breast) of 31100 nM.
Work on `C=C1C(=O)O[C@@H]2C[C@@H](C)[C@@H]3C=CC(=O)[C@@]3(C)[C@@H](OC(=O)CCCC(=O)O[C@H]3[C@@H]4C(=C)C(=O)O[C@@H]4C[C@@H](C)[C@@H]4C=CC(=O)[C@]43C)[C@H]12` yielded a GI50 (MDA-MB-468 breast) of 14.3 nM and a TGI (MDA-MB-468 breast) of 32.8 nM.
In the case of `N#C/C(=C/C=C/c1cccc(Cl)c1)S(=O)c1ccccc1` (configuration not stated), the GI50 (MDA-MB-468 breast) is reported as 258 nM and the TGI (MDA-MB-468 breast) is reported as 758 nM.
`CCCCS(=O)(=O)c1cc(Nc2ccc(O)c3c2C(=O)c2ccccc2C3=O)ccc1C` gave a GI50 (MDA-MB-468 breast) of 88300 nM and a TGI (MDA-MB-468 breast) greater than 100000 nM.
